These results are taken from patent US6893829B2, “Human leukocyte 12-lipoxygenase and its role in the pathogenesis of disease states” (City of Hope, priority 1992, dated 2005).

In one assay the test system is MCF-7 cells. As to the kind of experiment: Proliferation of MCF-7 cells. Type of assay: cell-based, human. The following applies: baicalein 10 μM, CDC 10^−5M, NDGA 30 μM, ibuprofen 10^−5M.
The test system of assay [1] is 12-HETE in L6 muscle cells. As to the kind of experiment: 12-HETE in L6 muscle cells. The following applies: n = 2. The assay is classed as cell-based, rat. The protocol: 6. […] L6 muscle cells are skeletal muscle cells from rats which have been used to investigate the mechanisms of insulin action. When L6 muscle cells are incubated in xylose (5.5, mM), they are much more responsive to insulin when compared to cells in regular glucose (5.5 mM) or high glucose (25 mM). […] Thus, elevated 12-Lipoxygenase products, such as 12-HETE, appear to play an important role in reduced insulin metabolic actions caused by high glucose.

Assay [2] deals with VEGF protein in MCF-7 cells. Kind of assay: VEGF protein expression in breast cancer cells (immunoblot). The assay is classed as cell-based, human. The following applies: MCF-7, 24 hours. The protocol:
FIG. 8 illustrates the dose-dependent effect of platelet-derived growth factor (PDGF) on vascular endothelial growth factor (VEGF) protein (42 kD) expression in MCF-7 breast cancer cells. Nearly confluent MCF-7 cells were serum starved for 24 hours by placing in DME medium+0.4% FCS and 0.2% BSA. This medium was then freshly replaced and the cells incubated for another 24 hours with PDGF. At the end of the incubation, the cell monolayers were washed with ice-cold PBS, scraped into PBS and pelleted by centrifugation. The cell pellets were then lysed and equal amounts of protein (50 μg) subjected to electrophoresis and immunoblotting to detect VEGF using a specific antibody from Santa Cruz Biotechnology. Detection was by a chemiluminiscent technique.
FIG. 9 illustrates the effect of epidermal growth factor (EGF) and the 12-lipoxygenase product 12-HETE on VEGF protein expression in the MCF-7 breast cancer cell line MCF-7. MCF-7 cells were treated with EGF and 12-HETE for 24 hours and VEGF protein identified as described in the legend to FIG. 8.
(In general: Immunoblotting shows a protein as a band on a membrane.)

For a further assay, the system named is 12-LO activity in HSMC. Kind of assay: 12-HETE release and cell-associated 12-HETE in HSMC (HPLC/RIA). Type of assay: cell-based, human. The following applies: baicalein 10^−5 mol/L, data not shown. The protocol: FIG. 3A illustrates the effect of AII on 12-HETE release by HSMC. HSMC were grown to confluency. Serum was removed and cells were incubated in media 199 containing 0.4% fetal bovine serum (FBS) and 0.2% BSA for 18 hours. Cells were then washed with DME media and incubated for 20 minutes in DME media containing 0.2% BSA. AII was added to the cells for five and ten minutes at the concentrations of 10^−9 and 10^−8 mol/L. Media were collected for HETE assay. • *p<0.05 vs control n=4
FIG. 3B illustrates the effect of AII on cell-associated 12-HETE levels in HSMC. After collecting supernatants, cells were washed with ice-cold PBS and harvested by scraping for the assay of cell-associated HETEs. • *p<0.02 vs control n=4
HSMC and HAEC monolayers were washed twice with ice-cold PBS and then processed for RNA extraction or western analysis as described below. For hydroxyeicosatetraenoic acid (HETE) assay, approximately 24 hours prior to an experiment, the medium was replaced with medium 199 containing 0.4% FBS and 0.2% BSA.
These assays were performed using previously published methods (10,11). Briefly, 12- and 15-HETE are extracted from supernatants and cells on C18 mini columns (Analytichem International, CA) and measured using our validated reverse phase gradient HPLC and (RIA) methods.
Another major aspect of this invention is the discovery that AII increases the activity and expression of 12-LO mRNA and protein in HSMC.

A further assay concerns MAP kinase activity. Kind of assay: AII- and 12-HETE-induced mitogenic (MAP kinase) activities with 12-LO inhibitors. The assay is classed as cell-based, Chinese hamster. The protocol: It has been discovered that the administration of AII results in biphasic activation of MAP kinase (all of the MAP kinase experiments were conducted in CHO-AT1a cells—AII receptor AT1a cDNA transfected Chinese hamster ovary cells). […] Thus, the administration of a 12-LO inhibitor decreases AII- and/or 12-HETE-induced MAP kinase activity, thereby decreasing the effects which AII and/or 12-HETE have on cell growth and development.

The subject of assay [3] is beta sub-unit of the human insulin receptor. Kind of assay: Insulin receptor phosphorylation in rat-1-fibroblasts containing the human insulin receptor. The assay is classed as cell-based. Particulars: baicalein 10^−6M, last 24 hours. The protocol:
7. Baicalein, a selective 12-LO inhibitor, can prevent glucose-induced insulin resistance. To perform these studies, applicants cultured rat-1-fibroblasts that have been engineered to contain the human insulin receptor for ten days in high glucose (25 mM). For the last 24 hours, the cells were cultured with 10^−6M baicalein. The marked bands represent the phosphorylated beta sub-unit of the human insulin receptor (FIG. 23). As the band becomes lighter, it represents reduced insulin action. Lane 1 represents the insulin receptor phosphorylation in normal glucose (5.5 mM) vs the reduced insulin action in lane 5 (25 mM glucose).

Assay [4] is described as follows: Calcium gluconate infusion: urinary PGI2 and 12-HETE. Type of assay: in vivo, human. From the text:
Vascular tissue from diabetic animals and man metabolize arachidonic acid differently from normals. PGI2 is a vasodilator, antithrombolic, and renin secretagogue while 12-hydroxyeicosatetraenoic acid (12-HETE) is proinflammatory and inhibits cyclooxygenase (CO). Applicants earlier reported a prostacyclin (PGI2) deficiency in diabetics with hyporeinemic hypoaldosteronism (HH) (46). Applicants explored the production of the CO product, PGI2 and the lipoxygenase (LO) product, 12-HETE in NIDDM patients with normal renal function (NR), those with microalbuminuria (MiA0, macroabluminuria (MaA) and HH patients. PGI2 (6 keto PGF^1) and 12-HETE were measured in urine by HPLC followed by RIA using published methods. Results are:
Low dose calcium infusions have been previously shown to increase PGI2, probably via activation of tissue phospholipases. […] This supports the concept that a defect in prostacyclin formation exists in NIDDM.

The next assay relates to MO binding to HAEC. As to the kind of experiment: Monocyte binding to human aortic endothelial cells. Type of assay: cell-based. The protocol: The rate of atherosclerosis is accelerated in humans with diabetes mellitus (DM). Applicants recently published evidence that high glucose (HG) exposure of human aortic endothelial cells (HAEC) selectively increases monocyte (MO) but not neutrophil binding (56). HG exposure to EC can increase arachidonic acid (AA) release and lipoxygenase (LO) production formation. In the current study, applicants evaluated the role of 12- and 15-LO products in MO binding to HAEC. Culture of HAEC in HG (25 mM) for two passages increased MO binding compared to cells maintained in 5.5 mM glucose (239±30 cells/field HG vs 111±7, p<0.01). Phenidone (10^−6M), an inhibitor of the 12-LO pathway (50 percent inhibition of HG-induced binding, p<0.05). […] 12(S)-HETE added to HAEC cultured in 5.5 mM glucose increased MO binding (66±6 cells/field control vs 114±4 12-HETE 10^−10M, p<0.01). […] In summary, (1) elevated glucose increases MO binding to HAEC and this effect can be reduced by blockade of the LO pathway; (2) 12 but not 15-LO products, can increase MO binding.

Assay [5] relates to VEGF in vascular smooth muscle cells (VSMC). Kind of assay: VEGF protein, mRNA and secretion in VSMC (Western, Northern, EIA). Type of assay: cell-based, Porcine and human. The protocol: In addition to the work reflected in FIGS. 8-10, it has now been discovered that AII, 12-HETE and hyperglycemia (HG) increase VEGF production in vascular smooth muscle cells (VSMC). Porcine and human VSMC were cultured for at least two passages under normal glucose (NG, 5.5 mM) or under HG conditions. VEGF protein expression was determined by Western blotting and VEGF mRNA by Northern blots. HG alone increased the level of VEGF mRNA (2.8-fold) and protein (3.2-fold). […] In addition, HG increased the secretion of VEGF into the medium as measured by a specific EIA (56.2±4 ng/ml NG vs 73±5 HG, p<0.02).

Where [6] appears, read: NIDDM patients with microalbuminuria.
The mark [7] stands for this setting: normal subjects, three hour infusion.

As usually defined, the inhibition is the percentage by which the read-out fell short of the control.

`CC(Cc1ccc(O)c(O)c1)C(C)Cc1ccc(O)c(O)c1` (centres unmarked) [NDGA]: the “proliferation of MCF-7 cells” value with MCF-7 cells is given as “significantly inhibited”.

With `O=C[C@H](O)[C@@H](O)[C@H](O)CO` [Xylose, xylose], in assay [1] (xylose 5.5 mM), the “12-HETE in the cells” value is recorded as 398 pg/total cells and the “12-HETE release in the media” value was found to be 53.2 pg/mL.

Take PDGF: the VEGF protein expression result in assay [2] is listed as “dose-dependent increase”.

`O=c1cc(-c2ccccc2)oc2cc(O)c(O)c(O)c12` [baicalein]: the “12-HETE levels in response to AII” value with 12-LO activity in HSMC is on record as “could be reduced”. Further, the “AII- and 12-HETE-induced mitogenic activities” value with MAP kinase activity is recorded as “dose-dependently reduce”. Moreover, in the assay with MCF-7 cells, the “proliferation of MCF-7 cells” value is reported as “significantly inhibited”. In addition, in assay [3], the “insulin receptor phosphorylation in 25 mM glucose” value was “restoration of insulin receptor phosphorylation”.

For calcium gluconate, in [4] (setting [6]), the 12-HETE entry was “further stimulation” and the PGI2 entry is “no increase”. In [4] (setting [7]), the 12-HETE result is reported as “highly significant increase” and the PGI2 entry was “highly significant increase”.

In the case of 12(R)-Hydroxyeicosatrienoic acid, the “lowest concentration showing effects on MO binding” value with MO binding to HAEC is 10^−12 M.

For `N#C/C(=C\c1ccc(O)c(O)c1)C(=O)OC/C=C/c1ccccc1` [CDC], the “AII- and 12-HETE-induced mitogenic activities” value in the assay on MAP kinase activity is “dose-dependently reduce”. In addition, the “proliferation of MCF-7 cells” value in the assay with MCF-7 cells was “significantly inhibited”.

`O=C[C@H](O)[C@@H](O)[C@H](O)[C@H](O)CO` [HG, glucose]: in assay [5] (HG alone vs NG 5.5 mM), the “level of VEGF mRNA” value is given as 2.8 fold and the “level of VEGF protein” value came out at 3.2 fold. Besides, the “secretion of VEGF into the medium (EIA)” value in [5] (HG, NG 56.2±4) came to 73 ± 5 ng/mL. In the assay on MO binding to HAEC (HAEC in HG 25 mM for two passages, 5.5 mM glucose 111±7), this compound yielded an MO binding of 239±30 cells/field. In addition, in [1] (high glucose 25 mM), the “12-HETE in the cells” value is given as 620 pg/total cells and the “12-HETE release in the media” value worked out at 110.3 pg/mL. In addition, in assay [1] (regular glucose 5.5 mM), the “12-HETE in the cells” value was found to be 472 pg/total cells and the “12-HETE release in the media” value amounted to 101.8 pg/mL.

Turning to `CC(C)Cc1ccc(C(C)C(=O)O)cc1` (centres unmarked) [ibuprofen], in the assay on MCF-7 cells, the “proliferation of MCF-7 cells” value was “not”.

With `O=C1CCN(c2ccccc2)N1` [Phenidone], in the assay with MO binding to HAEC (Homo sapiens, Phenidone 10^−6M, read-out: inhibition of HG-induced MO binding), the inhibition at 1 µM is 50%.

Regarding `CCCCC[C@H](O)/C=C/C=C\C/C=C\C/C=C\CCCC(=O)O` [15(S)-HETE], in the assay on MO binding to HAEC (15(S)-HETE 10^−6 to 10^−12M), the “MO binding to HAEC” value is given as “did not stimulate”.
